Assay [1] has as its system control tobacco seedlings. The assay is described as follows: Tobacco seedling growth in MS media with phosphate or phosphite as only phosphorus source. It is filed as in vivo, Nicotiana tabacum. As for the experimental part: (§1) Nicotiana tabacum was transformed with the expression construct described in Example 1. In particular, tobacco leaf explants were co-cultivated with an Agrobacterium strain harboring a 35S::PtxD construct (Example 1) within its T-DNA. Leaf discs were allowed to regenerate in MS media containing 1 mM phosphite as the only phosphorus source. Plants regenerated from these leaf discs on phosphite-containing media were transferred to soil and allowed to set seed under greenhouse conditions.
(§2) The presence or absence of growth (after depletion of seed-furnished phosphorus) is indicated by a plus (+) or a minus (−) symbol, respectively.
(§3) Seedlings were germinated and maintained in MS media supplemented with 1 mM phosphite as the only phosphorus source for 25 days. The seedlings then were transferred to tissue culture flasks containing MS with 1 mM phosphite as the only phosphorus source and were allowed to grow for 25 additional days in a plant growth chamber at 23° C., with a photoperiod of 18 h light, followed by 6 h darkness for each 24-hour period.

Assay [2] deals with transgenic tobacco homozygous for the 35S::PtxD gene. The assay is described as above. It is filed as in vivo, Nicotiana tabacum. The following applies: for seedling growth: MS media, 25 days after germination, FIG. 13. On the procedure:
as §1, §2, §3

The test system of assay [3] is Control plants (wild-type Col-0). The assay is described as follows: Growth in media containing only phosphite as external source of phosphorus. It is filed as in vivo, Arabidopsis thaliana. Conditions: only phosphite (about 0.1 to 5 mM) as external source of phosphorus. On the procedure: (§4) The transformed Agrobacterium clone was used to transform Arabidopsis thaliana (ecotype Col-0) (generally described herein as “wild-type” (WT)) using a modified floral dip method. Transformed T0 progeny were selected using phosphinothricin resistance. In particular, screening was performed with MS 0.1× media containing phosphinothricin (20 mg/L). Twenty-eight resistant lines were identified through PCR amplification of the ptxD gene.
(§5) The ptxD transgenic plants were tested for their ability to grow in media containing only phosphite (e.g., about 0.1 to 5 mM) as an external source of phosphorus.

The test system of the next assay is parental (WT) plants. The assay is described as follows: Growth and dry weight on sand:vermiculite substrate with phosphate or phosphite. It is filed as in vivo, Arabidopsis thaliana. The following applies: sand:vermiculite (1:1). As for the experimental part:
(§6) FIGS. 10 and 11 show photographs of parental and ptxD transgenic plants distributed according to FIG. 9 and tested for growth on a substrate containing added phosphate (Pi) (FIG. 10) or phosphite (Phi) (FIG. 11) as the source of phosphorus. […] The plants here and in FIG. 11 were grown in a sand:vermiculite mixture (1:1) and received water and nutrient solutions (lacking any other phosphorus source except as previously indicated) periodically.
(§7) The dry weight of three plants cultivated in sand:vermiculite (1:1) as substrate is plotted in the figure with respect to each particular plant line and source(s) of phosphorus.

Assay [4] deals with ptxD transgenic (PTXD) plants. The assay is described as above. Conditions: sand:vermiculite (1:1). It is filed as in vivo, Arabidopsis thaliana. On the procedure:
as §6, §7

For a further assay, the system named is ptxD transgenic plants. Description: Growth or selection in media containing only phosphite as external source of phosphorus. It is filed as in vivo, Arabidopsis thaliana. As for the experimental part:
as §4, §5
The ptxD expression construct also was used to provide a selectable marker for selection of transgenic plants with modified phosphorus metabolism. Wild-type Col-0 plants were transformed using Agrobacterium containing the ptxD expression construct. T0 progeny (seeds) were plated on a medium with phosphite (5 mM) as the source of phosphorus.

Assay [5] has as its system transgenic plants (PTXD-3 and PTXD-5). Description: Reduction of total phosphorus in growth medium containing phosphite (vanadium-molybdate method). The following applies: initially 50, 100 or 1000 μM phosphite; 45 days; 100 plants per container; FIG. 8. It is filed as in vivo, Arabidopsis thaliana. From the text: Wild type and the two transgenic Arabidopsis lines, PTXD-3 and PTXD-5, were germinated and cultivated in one-liter plastic containers with 0.1× Murashige and Skoog liquid medium lacking phosphate and supplemented with either 50, 100 or 1000 micromolar phosphorous acid (H3PO3). One hundred plants per plastic container were allowed to grow for 45 days in the plastic container in a growth chamber with a 16:8 light:dark cycle for each 24-hour period. The plants were covered to avoid moisture loss. A double layer of plastic mesh was placed where seeds were sown to germinate on top of liquid media in each plastic container.
After 45 days of growth the total phosphorus content was determined in the liquid media, after removing the plants, using a vanadium-molybdate method. Briefly, 5 mL of liquid media from each sample was digested with nitric acid:perchloric acid (HNO3:HClO4; 5:1). Then, the phosphorus content was determined with a colorimetric method based on the addition of a solution of ammonium molybdate (20 mM) and ammonium metavanadate (10 mM) in 70% perchloric acid. After a 20-minute incubation at room temperature, the absorbance at 400 nm was measured with a spectrophotometer.
In FIG. 8, the first three bars labeled as “initial” represent the initial concentration of total phosphorus in the media without plants. […]

Another assay deals with parental (WT) line Col-0. Description: Growth on liquid growth medium with phosphite or phosphate as phosphorus source. It is filed as in vivo, Arabidopsis thaliana. As for the experimental part:
(§8) The parental line and the PTXD-3 and PTXD-5 transgenic lines were tested for the ability to grow on a liquid medium, with or without inorganic phosphate (Pi) as the source of phosphorus. Seeds from the parental and transgenic lines were germinated in liquid media and tested for growth.
(§9) In FIG. 7, the absence or presence of sustained plant growth (beyond the germination stage) is identified with a minus (−) or a plus (+) symbol, respectively. […] Therefore, the transgenic lines acquired the ability to metabolize phosphite as a phosphorus source to support plant growth.

Assay [6] relates to transgenic PTXD-3 and PTXD-5 lines. The assay is described as above. It is filed as in vivo, Arabidopsis thaliana. On the procedure:
Two transgenic Arabidopsis lines, dubbed PTXD-3 and PTXD-5, were prepared and isolated as described in Example 1. Each line is homozygous for the ptxD expression construct of Example 1.
as §8, §9

[7] abbreviates: MS with 1 mM phosphite as only phosphorus source, 25 days plus 25 additional days, FIG. 14.
[8] abbreviates: 50, 100, and 1000 μM inorganic phosphite as phosphorus source, FIG. 7.
The mark [9] stands for this setting: 50 μM inorganic phosphate, FIG. 7.

SMILES strings stand for the structures.

With `OP(O)O` [phosphite, phosphorous acid (H3PO3)], the seedling growth result in [1] (MS media, 1 mM Phi as only phosphorus source, 25 days after germination, FIG. 13) is listed as “unable to sustain normal growth”; in assay [2] (1 mM Phi as only phosphorus source) it was “sustained growth”. Besides, the growth and development entry in assay [1] (setting [7]) is reported as “unable to use phosphite”. The growth result is “able to sustain rapid growth” in assay [2] (setting [7]); “no substantial growth” in assay [3]; “grew efficiently” in the assay with ptxD transgenic plants (only phosphite (about 0.1 to 5 mM) as external source of phosphorus); “but not the parental line” in the assay on parental (WT) line Col-0 (setting [8]); “grew efficiently” in [6] (setting [8]). Moreover, the “sustained growth on substrate” value in the assay on parental (WT) plants (added phosphite (Phi), FIG. 11) is “only the transgenic plants were capable of sustained growth”; in assay [4] (added phosphite (Phi), FIG. 11) it was “only the transgenic plants were capable of sustained growth”. In addition, the “growth (dry weight of three plants)” value in the assay on parental (WT) plants (phosphite as the source of phosphorus, FIG. 12) is reported as “did not grow substantially”. Also, the “growth (dry weight of three plants) on phosphite relative to phosphate” value in assay [4] (FIG. 12) is “grew similarly or better”. Moreover, in the assay with ptxD transgenic plants (medium with phosphite (5 mM) as the source of phosphorus, FIG. 6), the “growth of T0 progeny relative to wild type plants” value was “substantial growth advantage”. The “decrease of phosphorus content in the media (removal of phosphite)” value in [5] was “more than 50%”.
`O=P(O)(O)O` [phosphate, phosphoric acid (H3PO4)]: in [2] (1 mM Pi as only phosphorus source), the seedling growth entry is “sustained growth”. Besides, the growth result in the assay with parental (WT) line Col-0 (setting [9]) is listed as “grew efficiently”; with parental (WT) line Col-0 (50, 100, and 1000 μM phosphate), “grew efficiently”; in [6] (setting [9]), “grew efficiently”; in assay [6] (50, 100, and 1000 μM phosphate), “grew efficiently”.

Source of the values: patent US10851386B2, “Plants transformed to express a phosphite dehydrogenase enzyme capable of metabolizing phosphite to reduce competition from weeds” (Centro de Investigación y de Estudios Avanzados del …, priority 2008, dated 2020).
